This note sets out measurements from US10669263B2, “Substituted benzimidazole derivative as a modulator of TNF activity” (UCB Biopharma SRL, priority 2016, dated 2020).

In experiment [1] the target is T1, TNFα (Homo sapiens, UniProt P01375). Put plainly: Reporter gene assay (HEK-293 bioassay): inhibition of TNFα-induced NF-κB activation in HEK-Blue CD40L cells. The class given is cell-based. The following applies: 0.5 ng/mL TNFα, 60 minutes preincubation, 18 h incubation, read-out: IC50 value, inhibition of TNFα-induced NF-κB activation (SEAP reporter). The text has this:
The compounds in accordance with the present invention potently neutralise the activity of TNFα in a commercially available HEK-293 derived reporter cell line known as HEK-Blue™ CD40L. This is a stable HEK-293 transfected cell line expressing SEAP (secreted embryonic alkaline phosphatase) under the control of the IFNβ minimal promoter fused to five NF-κB binding sites. Secretion of SEAP by these cells is stimulated in a concentration-dependent manner by TNFα.
Inhibition of TNFα-induced NF-κB Activation
Stimulation of HEK-293 cells by TNFα leads to activation of the NF-κB pathway. The reporter cell line used to determine TNFα activity was purchased from InvivoGen. HEK-Blue™ CD40L is a stable HEK-293 transfected cell line expressing SEAP (secreted embryonic alkaline phosphatase) under the control of the IFNβ minimal promoter fused to five NF-κB binding sites. Secretion of SEAP by these cells is stimulated in a dose-dependent manner by TNFα, with an EC50 of 0.5 ng/mL for human TNFα. […] SEAP activity was determined in the supernatant using a colorimetric substrate, e.g. QUANTI-Blue™ or HEK-Blue™ Detection media (InvivoGen). Percentage inhibitions for compound dilutions were calculated between a DMSO control and maximum inhibition (by excess control compound) and an IC50 value calculated using XLfit™ (4 parameter logistic model) in ActivityBase.

Experiment [2] has as its target T1, TNFα. Put plainly: Fluorescence polarisation assay: inhibition of binding of fluorescence conjugate to TNFα. The note with it: 10 nM TNFα, 10 nM fluorescence conjugate, 60 minutes pre-incubation, then 20 hours at ambient temperature. Here is the method:
Fluorescence Polarisation Assay
Inhibition of Binding of Fluorescence Conjugate to TNFα
Compounds were tested at 10 concentrations starting from 25 μM in a final assay concentration of 5% DMSO, by pre-incubation with TNFα for 60 minutes at ambient temperature in 20 mM Tris, 150 mM NaCl, 0.05% Tween 20, before addition of the fluorescence conjugate and a further incubation for 20 hours at ambient temperature. The final concentrations of TNFα and the fluorescence conjugate were 10 nM and 10 nM respectively in a total assay volume of 25 μL. Plates were read on a plate reader capable of detecting fluorescence polarisation (e.g. an Analyst HT plate reader; or an Envision plate reader). An IC50 value was calculated using XLfit™ (4 parameter logistic model) in ActivityBase.

pIC50: −log10 of the molar value. “And” between values parts separate entries of the source, which are not always exact repeats. Equal entries are not always repeated.

T1 sequence (P01375 77-233 limits assumed): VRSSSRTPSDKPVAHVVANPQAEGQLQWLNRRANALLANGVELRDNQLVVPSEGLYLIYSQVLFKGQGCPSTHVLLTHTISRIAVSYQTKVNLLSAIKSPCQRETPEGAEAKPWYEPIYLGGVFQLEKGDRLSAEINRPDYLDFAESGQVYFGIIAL

On to `Cc1nc2ccc(-c3cnc(C(C)(C)O)nc3)cc2n1Cc1c(F)cccc1OC(F)F` [Example 1, 2-(5-{1-[2-(Difluoromethoxy)-6-fluorobenzyl]-2-methyl-1H-benzimidazol-6-yl}-pyrimidin-2-yl)propan-2-ol], for which the pIC50 is > 7.30 and 7.30 to 9.30 in experiment [1]; > 7.70 and 7.70 to 10.00 in experiment [2].
